According to ChEMBL document CHEMBL1132232, “7alpha-Iodo and 7alpha-fluoro steroids as androgen receptor-mediated imaging agents” (J Med Chem, 1999):

Molecular target: T1, Androgen receptor (Homo sapiens) (UniProt P10275)
T1 sequence (whole entry): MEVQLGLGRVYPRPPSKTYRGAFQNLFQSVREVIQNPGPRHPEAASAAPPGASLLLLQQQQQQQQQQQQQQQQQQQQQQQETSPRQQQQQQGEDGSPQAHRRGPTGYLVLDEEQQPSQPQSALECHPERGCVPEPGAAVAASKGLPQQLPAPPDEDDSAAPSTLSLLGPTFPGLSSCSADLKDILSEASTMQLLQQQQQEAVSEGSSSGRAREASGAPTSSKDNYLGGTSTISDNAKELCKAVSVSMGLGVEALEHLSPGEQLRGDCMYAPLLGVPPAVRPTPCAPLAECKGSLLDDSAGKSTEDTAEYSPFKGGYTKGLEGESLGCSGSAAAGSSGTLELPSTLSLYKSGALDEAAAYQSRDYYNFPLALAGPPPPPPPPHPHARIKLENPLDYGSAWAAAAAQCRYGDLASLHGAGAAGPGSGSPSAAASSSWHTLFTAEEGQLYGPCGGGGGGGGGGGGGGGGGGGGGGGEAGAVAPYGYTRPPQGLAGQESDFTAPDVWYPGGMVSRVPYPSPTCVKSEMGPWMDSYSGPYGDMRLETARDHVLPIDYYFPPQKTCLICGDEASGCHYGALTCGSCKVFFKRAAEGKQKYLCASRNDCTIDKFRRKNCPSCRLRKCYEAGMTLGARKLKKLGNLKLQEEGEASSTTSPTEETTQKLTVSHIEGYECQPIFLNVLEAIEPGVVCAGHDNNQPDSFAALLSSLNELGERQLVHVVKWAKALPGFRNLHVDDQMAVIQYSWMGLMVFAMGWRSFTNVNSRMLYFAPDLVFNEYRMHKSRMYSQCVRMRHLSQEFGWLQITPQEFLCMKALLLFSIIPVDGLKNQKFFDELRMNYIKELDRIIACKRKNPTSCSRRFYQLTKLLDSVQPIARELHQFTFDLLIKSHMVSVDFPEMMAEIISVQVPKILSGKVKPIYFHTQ
Details: CV-1
Description: Relative stimulatory activity compared to 5-alpha-DHT in CV-1 cells expressing androgen receptor

| SMILES | RSA |
| --- | --- |
| CC12CC[C@H]3[C@@H]([C@H](F)CC4CC(=O)CCC43C)[C@@H]1CCC2O (some centres not stated) | 60 |
| CC12CC[C@@H]3C4CCC(=O)CC4C[C@@H](I)[C@H]3[C@@H]1CCC2O (some centres not stated) | 13 |
